Patent publication US20110209228A1, “METHOD OF TREATMENT USING ANTIMICROBIAL COMPOSITION” (priority 2008, published 2011)
Ends that are not written are not given here.

Columns and labels:
[1] = tested on: lactobacilli; experiment: activity against lactobacilli (dairy starter culture); assay type: cell-based; conditions: dairy starter culture comprising lactobacilli
Description: In separate experiments, the peptide AGG01 (SEQ ID NO: 7) or AG002 (SEQ ID NO: 8) is shown to be suitable for use in a dairy starter culture comprising lactobacilli, especially one or more Lactis spp., in particular one or more organisms selected individually or collectively from the group consisting of: L. helveticus, L. acidophilus, L. lactis, L. bugaricus and L. citrovorum, and especially L. acidophilus.

[2] = bioactivity of peptides in milk; conditions: 200 μg/ml, 37° C., 30 or 60 min, data not shown
[3] = tested on: milk proteases; experiment: Western blotting of CHO cell extracts incubated in bovine milk; conditions: CHO cell extract, 2 hr
Description: Western blotting of cell lysates was performed according to standard procedures to confirm expression of peptides in mammalian cells. Briefly, cell extracts and culture supernatants were obtained from CHO cells transfected with the vectors pCMV-SPORT6-AGG01 and pCMV-SPORT6-AGG02, resolved in 18% (w/v) SDS/polyacrylamide electrophoresis gels, transferred by electroblotting onto nitrocellulose membrane and either stained in Ponceau S or probed with polyclonal antisera. In a further example, cell extracts were incubated in bovine milk for 2 hrs prior to their preparation for electrophoresis, to determine stability in milk. Control samples comprises non-transfected CHO cell extracts and supernatants. Membranes were developed using polyclonal rabbit anti-mAGG01 serum that had been produced according to standard procedures, by immunizing rabbits with synthetic peptide (i.e., SEQ ID NO: 7).

[4] = tested on: E. coli DH5α; experiment: microbroth dilution method, peptide and antibiotic combination; assay type: cell-based; conditions: tetracycline or chloramphenicol, E. coli DH5α
Description: To determine whether or not antimicrobial peptides as described herein act in a synergistic manner with antibiotic compounds, a microbroth dilution method was performed against E. coli DH5α performed according to the guidelines of the National Committee for Clinical Laboratory Standards.

[5] = tested on: S. uberis; conditions: both high and low salt concentrations
[6] = tested on: Staphylococcus aureus (ATCC 25923)
[7] = tested on: Streptococcus agalactiae (ATCC 12927)
[8] = tested on: Candida albicans (ATCC 753)
[9] = tested on: all microorganisms tested; conditions: for antimicrobial activity against pathogens that cause mastitis (in words): S. uberis, E. coli, S. aureus and S. agalactiae
[10] = tested on: E. coli
[11] = tested on: P. haemolytica
[12] = tested on: P. multicoda
[13] = tested on: B. bronchiseptica
[14] = tested on: H. somnus
[15] = tested on: A. pleuropneumoniae
[16] = tested on: S. suis
[17] = tested on: S. choleraesuis
[18] = tested on: S. aureus; conditions: for activity against isolates (in words): S. aureus otitis externa isolates
[19] = tested on: S. schleiferi; conditions: for activity against isolates (in words): S. schleiferi otitis externa isolates
[20] = tested on: S. epidermis; conditions: for activity against isolates (in words): S. epidermis otitis externa isolates
[21] = tested on: S. pseudointermedin; conditions: for activity against isolates (in words): S. pseudointermedin otitis externa isolates
[22] = tested on: Pseudomonas aeruginosa; conditions: for activity against isolates (in words): Pseudomonas aeruginosa otitis externa isolates
[23] = heat resistance of antimicrobial peptides; conditions: 200 μg/ml; for antimicrobial bioactivity in phosphate buffer following heat treatment (in words): 10 mM phosphate buffer, up to 56° C. 30 min or 70° C. 15 min; for bioactivity in pasteurized milk following heat treatment (in words): pasteurised milk, up to 68° C. 30 min or 71.7° C. 20 sec, data not shown
[24] = tested on: Salmonella choleraesuis (ATCC 14028)
[25] = tested on: Streptococcus equi equi (ATCC 9527)

| Substance | activity against lactobacilli (in words) [1] | antimicrobial bioactivity in fresh milk (in words) [2] | antimicrobial bioactivity in pasteurized milk (in words) [2] | synergy with antibiotics (in words) [4] | MIC [6] [µg/mL] | MIC [7] [µg/mL] | MIC [8] [µg/mL] | antimicrobial activity against pathogens that cause mastitis (in words) [9] | MIC [10] [µg/mL] | MIC [11] [µg/mL] | MIC [12] [µg/mL] | MIC [13] [µg/mL] | MIC [14] [µg/mL] | MIC [15] [µg/mL] | MIC [16] [µg/mL] | MIC [17] [µg/mL] | MIC [18] [µg/mL] | activity against isolates (in words) [18] | MIC [19] [µg/mL] | activity against isolates (in words) [19] | other results |
| --- | --- | --- | --- | --- | --- | --- | --- | --- | --- | --- | --- | --- | --- | --- | --- | --- | --- | --- | --- | --- | --- |
| KRGFGKKLRKRLKKFRNSIKKRLKNFNVVIPIPLP-NH2 [SEQ ID NO: 7] | low activity against lactobacilli | retained | slightly reduced | act synergistically | 5.72 ± 0.37 | 3.81 | 5.48 ± 0.16 | exhibited antimicrobial activity | 1 to 8 | 1 to 16 | 16 | 1 to 2 | 16 | 8 | 16 to 32 | 4 to 8 | 2 | especially strong activity | 2 to 4 | especially strong activity | presence of peptide following incubation with bovine milk (Western blot, in words) [3]: present; inhibiting growth of and/or killing S. uberis (in words) [5]: capable of inhibiting growth of and/or killing S. uberis; MIC, active against all microorganisms tested ([9]; summary of Table 1): less than 10 μg/ml; activity against isolates (in words) ([10]; E. coli BRD/SRD isolates): especially strong activity; activity against isolates (in words) ([11]; P. haemolytica BRD/SRD isolates): possibly also against P. haemolytica; activity against isolates (in words) ([13]; B. bronchiseptica BRD/SRD isolates): especially strong activity; activity against isolates (in words) ([14]; H. somnus BRD/SRD isolates): weaker activity; activity against isolates (in words) ([15]; A. pleuropneumoniae BRD/SRD isolates): Intermediate activity; activity against isolates (in words) ([16]; S. suis BRD/SRD isolates): weaker activity; MIC [20]: 1 µg/mL; activity against isolates (in words) [20]: especially strong activity; MIC [21]: 1 to 2 µg/mL; activity against isolates (in words) [21]: especially strong activity; MIC [22]: 2 to 4 µg/mL; activity against isolates (in words) [22]: Strong antimicrobial activity; antimicrobial bioactivity in phosphate buffer following heat treatment (in words) [23]: retain their antimicrobial bioactivity; bioactivity in pasteurized milk following heat treatment (in words) [23]: active in pasteurized milk, even following heat treatment |
| KRGLWESLKRKATKLGDDIRNTLRNFKIKFPVPRQ-NH2 [SEQ ID NO: 8] | low activity against lactobacilli | reduced or inhibited | reduced or inhibited | act synergistically | 5.44 ± 0.49 | 1.2 | 10.01 ± 0.47 | has antimicrobial activity | 8 to 32 | 4 to 64 | 8 to 32 | 32 | 32 | 16 | 4 to 8 | >64 | 4 | especially strong activity | 2 to 4 | especially strong activity | MIC [24]: 9.32 ± 0.38 µg/mL; MIC [25]: 4.85 ± 0.35 µg/mL; MIC [20]: 2 µg/mL; activity against isolates (in words) [20]: especially strong activity; MIC [21]: 1 µg/mL; activity against isolates (in words) [21]: especially strong activity; MIC [22]: 8 to 32 µg/mL; activity against isolates (in words) [22]: slightly weaker activity; antimicrobial bioactivity in phosphate buffer following heat treatment (in words) [23]: retain their antimicrobial bioactivity; bioactivity in pasteurized milk following heat treatment (in words) [23]: reduced or inhibited |
